The record followed here is patent publication US11160839B2, “Pediococcus pentosaceus CCFM1012 and application thereof to preparation of Campylobacter jejuni infection antagonism medicine” (Jiangnan University, priority 2018, dated 2021).

The experiment concerns C. jejuni NCTC11168. In words: Oxford cup inhibition zone test of lactic acid bacteria fermented supernate on Columbia blood agar. The experiment is classed as cell-based. Particulars: Campylobacter jejuni, positive control 0.30 mg/mL, 48 h at 37° C., read-out: Diameter of inhibition zone.

In general, zone of inhibition refers to the extent of the growth-free halo in a diffusion test.

Molecules are shown by their SMILES.

In the case of `CCn1cc(C(=O)O)c(=O)c2cc(F)c(N3CCNCC3)cc21` [norfloxacin], the zone of inhibition at 300 µg/mL is 19.7 ± 0.83 mm.
